≈ marks a conversion by molar mass, not a printed value. Where only a bound is given, the exact number is not on record here.

The IC50 is the concentration needed to halve the response being measured.

The subject of series [1] is Trypanosoma cruzi. The experiment in a line: Antitrypanosomal activity against Trypanosoma cruzi. The class given is functional, organism-based.
For series [2], the system named is Trypanosoma brucei rhodesiense. In words: Antitrypanosomal activity against Trypanosoma brucei rhodesiense after 48 hrs by [3H]-hypoxanthine incorporation assay. It is filed as functional, organism-based.
The test system of series [3] is Trypanosoma cruzi. The experiment in a line: Antitrypanosomal activity against Trypanosoma cruzi after 48 hrs by [3H]-hypoxanthine incorporation assay. The class given is functional, organism-based.
Series [4] relates to Leishmania donovani. The experiment in a line: […] activity against Leishmania donovani after 48 hrs by [3H]-hypoxanthine incorporation assay. The class given is functional, organism-based.
Series [5] concerns Leishmania donovani. The experiment in a line: […] activity against Leishmania donovani. It is filed as functional, organism-based.
Series [6] has as its system Trypanosoma brucei rhodesiense. The experiment in a line: Antitrypanosomal activity against Trypanosoma brucei rhodesiense. The class given is functional, organism-based.
The subject of series [7] is L6. In words: Cytotoxicity against rat L6 cells assessed as reduction in cell viability. It is filed as cell-based.
The subject of series [8] is KB. In words: Cytotoxicity against human KB cells assessed as reduction in cell viability. It is filed as cell-based.
The nature of series [9]: Selectivity index, ratio of IC50 for Trypanosoma brucei rhodesiense to IC50 for human KB cells. The class given is toxicity. The conditions noted are these: read-out: Ratio IC50.

As for `O=C(Cn1ccnc1[N+](=O)[O-])NCc1ccccc1` [BENZNIDAZOLE], the IC50 turned out to be 0.36 µg/mL (≈ 1.38 µM) in series [1]; 0.001 µg/mL (≈ 0.00384 µM) in [2]; 5.42 µg/mL (≈ 20.8 µM) in series [3]; 33.3 µg/mL (≈ 128 µM) in series [4]; 0.2 µg/mL (≈ 0.768 µM) in [5]; 0.04 µg/mL (≈ 0.154 µM) in [6].
In the case of `O[C@H]1[C@H]2c3cc4c(cc3CN3CC[C@H](C[C@@H]1O)[C@H]23)OCO4`, the IC50 in series [1] is 21.4 µg/mL (≈ 73.9 µM); in series [5], > 90 µg/mL; in [6], 3.1 µg/mL (≈ 10.7 µM); in [7] it was 27 µg/mL (≈ 93.3 µM); in series [8], > 50 µg/mL. For the same molecule, the selectivity ratio in [9] is > 16.
